In PubChem BioAssay AID504363 (Southern Research Specialized Biocontainment Screening …, 2011):
pIC50: −log10 of the molar value. Active and inactive are the calls of the source.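 How the source made its calls: active means compound cutting virus infection of reporter cells by half or more at some tested dose; inactive means the rest.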

Tested on: MAGI-CCR5 HeLa cells, HIV-1 IIIB, beta-gal luminescence, 48 h
Assay: X4 HIV-1 replication inhibitors in MAGI cells, dose response, MAGI-CCR5 cells, beta-gal luminescence, 2% serum (AID 504363)

SMILES | pIC50 | IC50
Cc1c2c(=O)n(-c3nc4ccccc4s3)nc-2cc(O)n1Cc1ccncc1 | 5.35 | 
O=C(O)c1ccc(C[n+]2c(-c3ccccc3)csc2Nc2ccccc2)cc1 | 4.27 | 
CCc1ccc(-c2ccc(/C=C3\SC(=S)N(CCCC(=O)O)C3=O)o2)cc1 | 4.83 | 
O=C(O)CCCN1C(=O)/C(=C\c2ccc(-c3ccc(F)cc3)o2)SC1=S | 4.69 | 
CCOc1ccc(-n2cccc2/C=C2/C(=N)N3C(=NC2=O)SN=C3S(C)(=O)=O)cc1 | 4.46 | 
O=C(O)CCCN1C(=O)/C(=C\c2ccc(-c3ccc(Br)cc3)o2)SC1=S | 4.42 | 
CCOC(=O)C1=C(C)N=c2sc(=Cc3ccc(OCC(=O)O)cc3)c(=O)n2C1c1ccc(F)cc1 (stereo not drawn) | 4.54 | 
COc1cccc(-n2cccc2/C=C2/C(=N)N3C(=NC2=O)SN=C3S(C)(=O)=O)c1 | 4.50 | 
CCOC(=O)C1=C(C)N=c2s/c(=C\c3ccc(OCC(=O)O)cc3)c(=O)n2C1c1ccc(Cl)cc1 (stereo not drawn) | 4.61 | 
Cc1c2c(=O)n(-c3nc4ccccc4s3)nc-2cc(O)n1Cc1ccc(F)cc1 | 5.58 | 
CS(=O)(=O)C1=NSC2=NC(=O)/C(=C\c3cccn3-c3ccc(Cl)c(Cl)c3)C(=N)N21 | 4.47 | 
CCc1ccc(-n2cccc2/C=C2/C(=N)N3C(=NC2=O)SN=C3S(C)(=O)=O)cc1 | 4.50 | 
O=C(O)CCCN1C(=O)/C(=C/c2cc3ccccc3o2)SC1=S | 4.61 | 
COc1ccccc1NS(=O)(=O)c1ccc2c(c1)C1C=CCC1C(c1ccc(C(=O)O)cc1)N2 (stereo not drawn) | 5.41 | 
CC1=C(C(=O)OC(C)C)C(c2ccc(Cl)cc2)n2c(s/c(=C\c3ccc(OCC(=O)O)cc3)c2=O)=N1 (stereo not drawn) |  | > 100 µM (inactive)
O=C(O)CCC(C(=O)O)N1C(=O)/C(=C\c2ccco2)SC1=S (stereo not drawn) |  | > 100 µM (inactive)
COc1ccccc1Cn1c(O)cc2nn(-c3nc4ccccc4s3)c(=O)c-2c1C | 5.59 | 
CCOC(=O)C1=C(C)N=c2sc(=Cc3ccc(OCC(=O)O)cc3)c(=O)n2C1c1ccccc1 (stereo not drawn) | 4.46 | 
O=C(O)CCCN1C(=O)/C(=C\c2ccc(-c3ccc(Cl)cc3)o2)SC1=S | 4.82 | 
Cc1ccc(-n2cccc2/C=C2/C(=N)N3C(=NC2=O)SN=C3S(C)(=O)=O)cc1C | 4.45 | 
COc1ccc(-c2ccc(/C=C3\SC(=S)N(CCCC(=O)O)C3=O)o2)cc1 | 4.59 | 
Cc1c2c(=O)n(-c3nc4ccccc4s3)nc-2cc(O)n1Cc1cccnc1 | 5.55 | 
COc1cccc(C2C(C(=O)Nc3ccccc3)=C(C)N=c3sc(=Cc4ccc(OCC(=O)O)cc4)c(=O)n32)c1 (stereo not drawn) | 4.40 | 
Cc1c2c(=O)n(-c3nc4ccccc4s3)nc-2cc(O)n1C1CC1 | 5.97 | 
Cc1c2c(=O)n(-c3nc4ccccc4s3)nc-2cc(O)n1CCC(C)C | 5.60 | 
CCOC(=O)C1=C(C)N=c2sc(=Cc3ccc(OCC(=O)O)cc3)c(=O)n2C1c1ccccc1OC (stereo not drawn) | 4.46 | 
CS(=O)(=O)C1=NSC2=NC(=O)/C(=C\c3cccn3-c3ccc(F)cc3)C(=N)N21 | 4.46 | 

SMILES | pIC50 | IC50
Cc1ccc(-n2cccc2/C=C2/C(=N)N3C(=NC2=O)SN=C3S(C)(=O)=O)cc1 | 4.46 | 
CCOC(=O)C1=C(C)N=c2s/c(=C\c3ccc(OCC(=O)O)cc3)c(=O)n2C1c1ccc(OC)c(OCC)c1 (stereo not drawn) | 4.52 | 
CCOC(=O)C1=C(C)N=c2sc(=Cc3ccc(OCC(=O)O)cc3)c(=O)n2C1c1cc(OC)c(OC)c(OC)c1 (stereo not drawn) | 4.04 | 
Cc1c2c(=O)n(-c3nc4ccccc4s3)nc-2cc(O)n1CCc1ccc(O)cc1 | 5.33 | 
Nc1sc2ccccc2[n+]1Cc1ccc(C(=O)O)cc1 |  | > 100 µM (inactive)
CS(=O)(=O)C1=NSC2=NC(=O)/C(=C\c3cccn3-c3ccc(Br)cc3)C(=N)N21 | 4.46 | 
O=C(O)CCCN1C(=O)/C(=C\c2ccc(-c3cccc(Cl)c3)o2)SC1=S | 4.54 | 
CS(=O)(=O)C1=NSC2=NC(=O)/C(=C\c3cccn3-c3ccc(Cl)cc3)C(=N)N21 | 4.44 | 
Cc1c2c(=O)n(-c3nc4ccccc4s3)nc-2cc(O)n1CCc1cccs1 | 5.43 | 
CS(=O)(=O)C1=NSC2=NC(=O)/C(=C\c3cccn3-c3cccc(Cl)c3)C(=N)N21 | 4.45 | 
CS(=O)(=O)C1=NSC2=NC(=O)/C(=C\c3cccn3-c3cccc(C(F)(F)F)c3)C(=N)N21 | 4.47 | 
Cc1ccc(-c2ccc(/C=C3\SC(=S)N(CCCC(=O)O)C3=O)o2)cc1 | 4.69 | 
O=C(O)CCCN1C(=O)/C(=C/c2ccc(-c3ccc(Cl)c(Cl)c3)o2)SC1=S | 4.70 | 
O=C(O)c1ccc([C@@H]2Nc3ccc(S(=O)(=O)Nc4cccc5ccccc45)cc3[C@@H]3C=CC[C@@H]32)cc1 | 4.96 | 
Cc1c2c(=O)n(-c3nc4ccccc4s3)nc-2cc(O)n1Cc1cccs1 | 5.49 | 
O=C(O)c1ccc(C2Nc3ccc(S(=O)(=O)Nc4cc(Cl)ccc4Cl)cc3C3C=CCC32)cc1 (stereo not drawn) | 4.80 | 
CCOC(=O)C1=C(c2ccccc2)N=c2s/c(=C\c3ccc(OCC(=O)O)cc3)c(=O)n2C1c1cccc(OC)c1 (stereo not drawn) | 4.97 | 
Cc1c2c(=O)n(-c3nc4ccccc4s3)nc-2cc(O)n1Cc1ccccc1Cl | 5.38 | 
COc1ccc(CCn2c(O)cc3nn(-c4nc5ccccc5s4)c(=O)c-3c2C)cc1 | 4.69 | 
COc1ccc(-n2cccc2/C=C2/C(=N)N3C(=NC2=O)SN=C3S(C)(=O)=O)cc1Cl | 4.43 | 
CCOC(=O)C1=C(C)N=c2sc(=Cc3ccc(OCC(=O)O)cc3)c(=O)n2C1c1ccc(OC)cc1OC (stereo not drawn) | 4.47 | 
O=C(O)CCCN1C(=O)/C(=C/c2ccc(-c3cccc(C(F)(F)F)c3)o2)SC1=S | 4.63 | 
COc1ccc(Cn2c(O)cc3nn(-c4nc5ccccc5s4)c(=O)c-3c2C)cc1 | 5.51 | 
O=C(O)c1ccc(C[n+]2c(-c3ccc([N+](=O)[O-])cc3)csc2Nc2ccccc2)cc1 | 4.50 | 
CS(=O)(=O)C1=NSC2=NC(=O)/C(=C\c3cccn3-c3cc(Cl)cc(Cl)c3)C(=N)N21 | 4.46 | 
CS(=O)(=O)C1=NSC2=NC(=O)/C(=C\c3cccn3-c3cccc(F)c3)C(=N)N21 | 4.43 | 
